# Reference: patent US20230011652A1, “COMPOUNDS AND COMPOSITIONS FOR TREATING CONDITIONS ASSOCIATED WITH NLRP ACTIVITY” (Novartis AG, priority 2018, published 2023)
# pIC50: −log10 of the molar value.
# How the values were obtained:
# [1] = tested on: IL-1β production in PMA-differentiated THP-1 cells; assay: IL-1β production in PMA-differentiated THP-1 cells stimulated with gramicidin (hTHP-1 assay, 2% fetal bovine serum); assay type: cell-based; conditions: Homo sapiens, average, read-out: hTHP-1 IC50 (Average IC50 of compounds in hTHP-1 assay)
# Experimental: Procedure 1: IL-1β production in PMA-differentiated THP-1 cells stimulated with Gramicidin.
# THP-1 cells were purchased from the American Type Culture Collection and sub-cultured according to instructions from the supplier. Prior to experiments, cells were cultured in complete RPMI 1640 (containing 10% heat inactivated FBS, penicillin (100 units/ml) and streptomycin (100 μg/ml)), and maintained in log phase prior to experimental setup. Prior to the experiment THP-1 were treated with PMA (Phorbol 12-myristate 13-acetate) (20 ng/ml) for 16-18 hours. Compounds were dissolved in dimethyl sulfoxide (DMSO) to generate a 30 mM stock. On the day of the experiment the media was removed and adherent cells were detached with trypsin for 5 minutes. Cells were then harvested, washed with complete RPMI 1640, spun down, resuspended in RPMI 1640 (containing 2% heat inactivated FBS, penicillin (100 units/ml) and streptomycin (100 μg/ml). The cells were plated in a 384-well plate at a density of 50,000 cells/well (final assay volume 50 μl). Compounds were first dissolved in assay medium to obtain a 5× top concentration of 500 μM. 10 step dilutions (1:3) were then undertaken in assay medium containing 1.67% DMSO. 5× compound solutions were added to the culture medium to achieve desired final concentration (e.g. 100, 33, 11, 3.7, 1.2, 0.41, 0.14, 0.046, 0.015, 0.0051, 0.0017 μM). Final DMSO concentration was at 0.37%. Cells were incubated with compounds for 1 hour and then stimulated with gramicidin (5 μM) (Enzo) for 2 hours. Plates were then centrifuged at 340 g for 5 min. Cell free supernatant (40 μL) was collected using a 96-channel PlateMaster (Gilson) and the production of IL-1β was evaluated by HTRF (cisbio). A vehicle only control and a dose titration of CRID3 (100-0.0017 μM) were run concurrently with each experiment. Data was normalized to vehicle-treated samples (equivalent to 0% inhibition) and CRID3 at 100 μM (equivalent to 100% inhibition).
# (§1) 1.1 Cell Culture • 1) Culture THP-1 cells in the complete RPMI-1640 medium with 10% FBS at 37° C., 5% CO2. • 2) Passage the cells every 3 days by inoculating 3×10^5 cells per ml.
# (§2) 1.2 Compound Preparation • Prepare the 3-fold serial dilution of the compounds with DMSO in a 384-well LDV Microplate using TECAN EVO system to generate the compound source plate with 10 concentrations. Top concentration is 30 mM.
# (§3) 1.3 Cell Preparation • 1) Centrifuge THP-1 cells at 350 g for 5 min. • 2) Re-suspend cells with complete RMPI-1640 medium, and count cells. • 3) Seed cells in T225 flask, about 2.5×10^7 per flask, treat cells with 20 ng/ml PMA (final DMSO concentration<1%). • 4) Incubate overnight.
# 1.4 THP-1 Stimulation • 1) Wash adherent THP-1 cells with PBS, and detach cells with 4 ml trypsin for T225 flask. • 2) Centrifuge cells at 350 g for 5 min, re-suspend cells with RPMI-1640 containing 2% FBS and count cells with trypan blue. • 3) Transfer 50 nl/well the serial dilution of test compound to 384-well plate by Echo; For the high control and first point of CRID3 (MCC950), transfer 165 nl, then backfill to make the DMSO concentration is consistent in all wells, the plate layout is as below. • 4) Seed 50k cells in 40 ul RPMI-1640 with 2% FBS per well in 384-well plate. • 5) Incubate for 1 h at 37′C, 5% CO2. • 6) Prepare 5× gramicidin, add 10 μl per well, the final concentration is 5 μM, incubate for 2 hrs at 37° C., 5% CO2. • 7) Centrifuge at 350 g for 1 min. • 8) Pipet 16 μl supernatant by apricot, and transfer into white 384 proxiplate. FIG. 3 depicts the layout of the plates: HC: 100 μM CRID3 (MCC950)+5 μM gramicidin LC: 5 μM Gramicidin.
# 1.5 IL-1β detection • 1) Homogenize the 5× diluent #5 with a vortex and add 1 volume of stock solution in 4 volumes of distilled water. • 2) Thaw 20× stock solution of anti-IL1β-Cryptate-antibody and anti-IL1β XL-antibody. […]
# [2] = tested on: IL-1β production in PMA-differentiated THP-1 cells; assay: hTHP-1 assay containing 10% fetal bovine serum (IL-1β production, gramicidin stimulation); assay type: cell-based; conditions: Homo sapiens, Table 4, average, read-out: hTHP-1 IC50 in 10% FBS (Average IC50 of compounds in hTHP-1 assay)
# Experimental: as §1, §2, §3
# FIG. 3 depicts the layout of the plates: HC: 100 μM CRID3 (MCC950)+5 μM gramicidin LC: 5 μM Gramicidin.
# 1.5 IL-1β detection • 1) Homogenize the 5× diluent #5 with a vortex and add 1 volume of stock solution in 4 volumes of distilled water. • 2) Thaw 20× stock solution of anti-IL1β-Cryptate-antibody and anti-IL1β XL-antibody. Dilute these two antibodies to 1× with detection buffer #3. • 3) Pre-mix the two ready-to-use antibody solutions just prior to use. • 4) Dispense 4 ul of pre-mixed Anti-IL1β antibodies working solution into all wells. • 5) Seal the plate and incubate overnight at 4° C. • 6) Read the cell plate using EnVison and plot Readout vs. the test compound concentration to calculate the IC50.
# • 1. IC50 of compounds can be calculated using the following formulas
# % inhibition=100−100×[HCave−Readout/(HCave−LCave)] Formula for IC50 • 2. Fit the normalized data in a dose-response manner using XLfit, and calculate the compound concentration.
# [3] = Table 2, hTHP-1 assay containing 2% fetal bovine serum
# [4] = Table 3, hTHP-1 assay containing 2% fetal bovine serum
"pIC50 [1, 3]",Compound,other results
6.00 to 6.70,"CC1CCc2c1nc1c(c2NC(=O)NS(=O)(=O)c2cnn3c2OCCC3)CCC1 (stereo not drawn) [Compound 13, Sodium ((6,7-dihydro-5H-pyrazolo[5,1-b][1,3]oxazin-3-yl)sulfonyl)((3-methyl-1,2,3,5,6,7-hexahydrodicyclopenta[b,e]pyridin-8-yl)carbamoyl)amide]",
5.30 to 6.00,"Cc1c(C2CC2)nc2c(c1NC(=O)NS(=O)(=O)c1cnn3c1OCCC3)CCC2 [Compound 16, Sodium ((2-cyclopropyl-3-methyl-6,7-dihydro-5H-cyclopenta[b]pyridin-4-yl)carbamoyl)((6,7-dihydro-5H-pyrazolo[5,1-b][1,3]oxazin-3-yl)sulfonyl)amide]",
6.70 to 7.40,"O=C(Nc1c2c(cc3c1CC3)CC2)NS(=O)(=O)c1cnn2c1OCCC2 [Compound 9, N-(tricyclo[6.2.0.03,6]deca-1,3(6),7-trien-2-ylcarbamoyl)-6,7-dihydro-5H-pyrazolo[5,1-b][1,3]oxazine-3-sulfonamide]",
,"CCn1ccc(S(=O)(=O)NC(=O)Nc2c3c(cc4c2CCC4)CCC3)n1 [Example 17, 1-Ethyl-N-((1,2,3,5,6,7-hexahydro-s-indacen-4-yl)carbamoyl)-1H-pyrazole-3-sulfonamide]",pIC50 [2]: 5.30 to 6.00
,"CCn1cc(F)c(S(=O)(=O)NC(=O)Nc2c3c(cc4c2CC4)CCC3)n1 [Example 18, 1-Ethyl-4-fluoro-N-((2,4,5,6-tetrahydro-1H-cyclobuta[f]inden-3-yl)carbamoyl)-1H-pyrazole-3-sulfonamide]",pIC50 [2]: 6.00 to 6.70
6.70 to 7.40,"O=C(Nc1c2c(cc3c1CC3)CCC2)NS(=O)(=O)c1cnn2c1OC[C@H](O)C2 [Compound 402, (R)-6-hydroxy-N-((2,4,5,6-tetrahydro-1H-cyclobuta[f]inden-3-yl)carbamoyl)-6,7-dihydro-5H-pyrazolo[5,1-b][1,3]oxazine-3-sulfonamide]",
,"CC(C)(O)c1coc(S(=O)(=O)NC(=O)Nc2c3c(cc4c2CC4)CCC3)c1 [Compound 301, 4-(2-Hydroxypropan-2-yl)-N-((2,4,5,6-tetrahydro-1H-cyclobuta[f]inden-3-yl)carbamoyl)furan-2-sulfonamide]","pIC50 [1, 4]: 6.70 to 7.40"
,"CCn1cc(F)c(S(=O)(=O)NC(=O)Nc2c3c(cc4c2CCC4)CCC3)n1 [Example 16, 1-Ethyl-4-fluoro-N-((1,2,3,5,6,7-hexahydro-s-indacen-4-yl)carbamoyl)-1H-pyrazole-3-sulfonamide]",pIC50 [2]: 6.00 to 6.70
6.00 to 6.70,"O=C(Nc1c2c(nc3c1CCC3)CCC2)NS(=O)(=O)c1cnn2c1OCCC2 [Compound 12, Sodium ((6,7-dihydro-5H-pyrazolo[5,1-b][1,3]oxazin-3-yl)sulfonyl)((1,2,3,5,6,7-hexahydrodicyclopenta[b,e]pyridin-8-yl)carbamoyl)amide]",
5.30 to 6.00,"O=C(Nc1cc2c(c3c1CCC3)CCC2)NS(=O)(=O)c1cnn2c1OCCC2 [Compound 10, N-((1,2,3,6,7,8-hexahydro-as-indacen-4-yl)carbamoyl)-6,7-dihydro-5H-pyrazolo[5,1-b][1,3]oxazine-3-sulfonamide]",
6.00 to 6.70,C[C@@H]1CCc2c1nc1c(c2NC(=O)NS(=O)(=O)c2cnn3c2OCCC3)CCC1 [Compound 404],
,"CC(C)n1ccc(S(=O)(=O)NC(=O)Nc2c3c(cc4c2CC4)CCC3)n1 [Compound 302, 1-Isopropyl-N-((2,4,5,6-tetrahydro-1H-cyclobuta[f]inden-3-yl)carbamoyl)-1H-pyrazole-3-sulfonamide]","pIC50 [1, 4]: 5.30 to 6.00"
,"CCn1ccc(S(=O)(=O)NC(=O)Nc2c3c(cc4c2CC4)CCC3)n1 [Example 19, 1-Ethyl-N-((2,4,5,6-tetrahydro-1H-cyclobuta[f]inden-3-yl)carbamoyl)-1H-pyrazole-3-sulfonamide]",pIC50 [2]: 6.00 to 6.70
5.30 to 6.00,"O=C(Nc1c2c(nc3c1CCC31CC1)CCC2)NS(=O)(=O)c1cnn2c1OCCC2 [Compound 15, Sodium ((6,7-dihydro-5H-pyrazolo[5,1-b][1,3]oxazin-3-yl)sulfonyl)((1′,5′,6′,7′-tetrahydro-2′H-spiro[cyclopropane-1,3′-dicyclopenta[b,e]pyridin]-8′-yl)carbamoyl)amide]",
> 8.10,"CN[C@H]1COc2c(S(=O)(=O)NC(=O)Nc3c4c(cc5c3CC5)CCC4)cnn2C1 [Compound 401, (R)-6-(methylamino)-N-((2,4,5,6-tetrahydro-1H-cyclobuta[f]inden-3-yl)carbamoyl)-6,7-dihydro-5H-pyrazolo[5,1-b][1,3]oxazine-3-sulfonamide]",
5.30 to 6.00,CC1(C)CCc2c1nc1c(c2NC(=O)NS(=O)(=O)c2cnn3c2OCCC3)CCC1 [Compound 14],
6.00 to 6.70,"O=C(Nc1c2c(cc3c1CC3)CCC2)NS(=O)(=O)c1cnn2c1OCCC2 [Compound 8, N-((2,4,5,6-tetrahydro-1H-cyclobuta[f]inden-3-yl)carbamoyl)-6,7-dihydro-5H-pyrazolo[5,1-b][1,3]oxazine-3-sulfonamide]",
4.52 to 5.30,"O=C(Nc1c2c(cc3c1CCC3)CCC2)NS(=O)(=O)c1cnn2c1OC[C@H](OC(=O)Nc1c3c(cc4c1CCC4)CCC3)C2 [Compound 403, (R)-3-(N-((1,2,3,5,6,7-hexahydro-s-indacen-4-yl)carbamoyl)sulfamoyl)-6,7-dihydro-5H-pyrazolo[5,1-b][1,3]oxazin-6-yl (1,2,3,5,6,7-hexahydro-s-indacen-4-yl)carbamate]",
